{
  "source": "ChEMBL document CHEMBL1143075",
  "about": "“Taxanes from Shells and Leaves of Corylus avellana” (2008)",
  "system": "SK-MES-1",
  "test": "Inhibition of metaphase to anaphase transition in human SKMes1 cells at 10 nM",
  "format": "functional",
  "data": [
    {"compound": "CC(=O)O[C@H]1C(=O)[C@@]2(C)[C@H]([C@H](OC(=O)c3ccccc3)[C@]3(O)C[C@H](OC(=O)[C@H](O)[C@@H](NC(=O)c4ccccc4)c4ccccc4)C(C)=C1C3(C)C)[C@]1(OC(C)=O)CO[C@@H]1C[C@@H]2O", "note": "[PACLITAXEL]", "values": [
      {"measurement": "Ratio", "result": 0.026}
    ]}
  ]
}
